Like-named read-outs stand apart in the source and are kept apart here.
How the values were obtained:
Solubility in solvents = test: Solubility in solvents
Method: Trityl thiol was dissolved in 0.6 mL of DCM and cooled to 0° C. TFA (30 μL) and iPr3SiH (2.0 μL, 10 μmol) were added to the solution at 0° C. The bath was removed and the reaction was allowed to stir at room temperature for 1 h. Solvent was removed by argon flow and the residue 14 is taken crude for biological evaluation.

tumor = test: In vivo tumor growth inhibition study
Source text: Although the distribution effect of these compounds is similar, there is a notable difference in drug exposure of ˜30 percent for the peptide isostere.

HDACs1, 2 & 3 = test: Affinity precipitation from HeLa Nuclear Extract with streptavidin beads, immunoblot; assay type: binding; settings: 1 μM in 200 μL HeLa Nuclear Extract, 16 hr incubation, FIG. 1C
Method: 1 μM Largazole-Btn (54) in 200 μL of HeLa Nuclear Extract […] of streptavidin beads added after 16 hr incubation with compound.

Class I HDAC = test: HDAC biochemical selectivity profiling; settings: FIG. 1B, versus free Largazole-thiol
HDAC1 = HDAC1 (Homo sapiens, UniProt Q13547); test: Biochemical profiling for HDACi activity, miniaturized assay platform (HDAC1-9)
HDAC2 = HDAC2 (Homo sapiens, UniProt Q92769); test: as above
HDAC8 = target: T1, HDAC8 (Homo sapiens, UniProt Q9BY41); test: as above; settings: compared with IC50 for HDACs 1-3
T1 sequence (Q9BY41 1-377): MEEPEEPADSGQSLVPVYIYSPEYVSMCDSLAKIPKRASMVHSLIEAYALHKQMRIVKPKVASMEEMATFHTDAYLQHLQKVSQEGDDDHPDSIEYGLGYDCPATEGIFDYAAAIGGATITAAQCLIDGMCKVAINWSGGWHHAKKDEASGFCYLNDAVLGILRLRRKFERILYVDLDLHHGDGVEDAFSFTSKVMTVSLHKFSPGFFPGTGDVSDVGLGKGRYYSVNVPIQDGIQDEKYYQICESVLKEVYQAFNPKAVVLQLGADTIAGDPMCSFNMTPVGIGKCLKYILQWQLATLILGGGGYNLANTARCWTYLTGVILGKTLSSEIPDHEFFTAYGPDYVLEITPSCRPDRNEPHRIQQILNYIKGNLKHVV

[1] = system: NOTCH1 mutated T-ALL cells (DND41); test: ATP-based cell viability assay (CellTiter-Glo) in T-ALL cells; settings: DND41, 72, 144, 216 hours, 10 μM to 0.078 μM, FIGS. 11-13
Method: (§1) To test the hypothesis that largazole folate-conjugated small molecules target T-ALL, dose-ranging ATP content assays were performed. […] Next, an ATP-based assay (CellTiter-Glo, Promega®) was used to calculate the half-maximal inhibitory concentration (IC50) of cell viability. Graphs were plotted as a fraction of cells alive (y-axis) using Prism GraphPad 6 software and drug doses expressed as Log [μM] (x-axis).

[2] = system: NOTCH1 mutated T-ALL cells (ALL/SIL); test: as above; settings: ALL/SIL, 72, 144, 216 hours, 10 μM to 0.078 μM, FIGS. 14-16
Method: as §1

HDAC2, sequence (Q92769 whole entry): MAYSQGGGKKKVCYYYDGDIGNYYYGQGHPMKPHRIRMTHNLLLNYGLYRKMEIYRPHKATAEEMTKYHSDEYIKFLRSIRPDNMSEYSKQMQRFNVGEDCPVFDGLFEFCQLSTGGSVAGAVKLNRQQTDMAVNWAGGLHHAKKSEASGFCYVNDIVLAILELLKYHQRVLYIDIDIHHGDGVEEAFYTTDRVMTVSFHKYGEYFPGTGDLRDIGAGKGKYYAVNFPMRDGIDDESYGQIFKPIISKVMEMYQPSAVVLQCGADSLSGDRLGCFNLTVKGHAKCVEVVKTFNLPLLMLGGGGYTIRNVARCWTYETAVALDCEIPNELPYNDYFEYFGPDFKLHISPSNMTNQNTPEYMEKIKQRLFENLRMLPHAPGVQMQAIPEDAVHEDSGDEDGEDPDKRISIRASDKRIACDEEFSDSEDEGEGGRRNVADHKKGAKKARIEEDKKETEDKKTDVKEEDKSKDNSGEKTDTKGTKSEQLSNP
HDAC1, sequence (Q13547 whole entry): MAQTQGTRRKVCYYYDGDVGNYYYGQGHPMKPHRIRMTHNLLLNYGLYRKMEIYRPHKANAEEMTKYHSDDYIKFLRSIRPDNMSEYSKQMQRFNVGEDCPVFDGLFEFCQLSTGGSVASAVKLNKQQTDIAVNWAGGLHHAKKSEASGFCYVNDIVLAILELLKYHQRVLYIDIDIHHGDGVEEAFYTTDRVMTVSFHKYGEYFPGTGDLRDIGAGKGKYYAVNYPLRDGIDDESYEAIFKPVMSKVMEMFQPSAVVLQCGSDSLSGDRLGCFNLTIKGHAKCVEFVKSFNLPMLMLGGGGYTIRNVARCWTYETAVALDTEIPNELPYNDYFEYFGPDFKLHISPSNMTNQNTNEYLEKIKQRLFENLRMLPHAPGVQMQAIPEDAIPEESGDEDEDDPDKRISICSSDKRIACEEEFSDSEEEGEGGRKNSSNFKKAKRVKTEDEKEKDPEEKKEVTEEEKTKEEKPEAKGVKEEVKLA

With CC(C)[C@@H]1NC(=O)[C@]2(C)CSC(=N2)c2nc(sc2-c2ccc(CNC(=O)CC[C@H](NC(=O)c3ccc(NCc4cnc5nc(N)[nH]c(=O)c5n4)cc3)C(=O)O)cc2)CNC(=O)CC(/C=C/CCS)NC1=O (some centres unmarked) [Compound 14] the “solubility in organic solvent” value (Solubility in solvents; crude product) was “very poor” and the solubility in water (Solubility in solvents; crude product) was “not soluble in water”.

largazole thiol gave a tumor growth inhibition (tumor) of 44%.

With CC(C)[C@@H]1NC(=O)[C@]2(C)CSC(=N2)c2nc(sc2-c2ccc(CNC(=O)CCCCCNC(=O)CCCCCNC(=O)CCCCC3SC[C@@H]4NC(=O)N[C@H]34)cc2)CNC(=O)CC(/C=C/CCS)OC1=O (some centres unmarked) [Largazole-Biotin] the “affinity precipitation of HDACs by immunoblot” value (HDACs1, 2 & 3) was “affinity precipitation of HDACs1, 2 & 3” and the biochemical selectivity (Class I HDAC) was “compares favorably to free Largazole-thiol”.

CCCCCCCC(=O)SCC/C=C/[C@@H]1CC(=O)NCc2nc(cs2)C2=N[C@@](C)(CS2)C(=O)N[C@@H](C(C)C)C(=O)O1 [Largazole] gave an IC50 (HDAC1) of under 20 nM, an IC50 (HDAC2) of under 20 nM and a tumor growth inhibition (tumor) of 34%. The “IC50 HDAC8” value (HDAC8) was “much higher”.

In the case of CC(C)C1NC(=O)[C@]2(C)CSC(=N2)c2nc(sc2-c2ccc(CNC(=O)CC[C@H](NC(=O)c3ccc(NCc4cnc5nc(N)[nH]c(=O)c5n4)cc3)C(=O)O)cc2)CNC(=O)CC(/C=C/CCS)NC1=O (some centres unmarked), the “solubility (solvents)” value (Solubility in solvents; FIG. 10 legend) is reported as “only soluble in DMSO”.

In the case of CCCCCCCC(=O)SCC/C=C/C1CC(=O)NCc2nc(c(-c3ccc(CNC(=O)CC[C@H](NC(=O)c4ccc(NCc5cnc6nc(N)[nH]c(=O)c6n5)cc4)C(=O)O)cc3)s2)C2=N[C@@](C)(CS2)C(=O)NC(C(C)C)C(=O)N1 (some centres unmarked), the “solubility (solvents)” value (Solubility in solvents) is reported as “soluble in mixture of CH2Cl2-MeOH, or DMSO”.

In the case of CCCCCCCC(=O)SCC/C=C/C1CC(=O)NCc2nc(c(-c3ccc(COC(=O)CC[C@H](NC(=O)c4ccc(NCc5cnc6nc(N)[nH]c(=O)c6n5)cc4)C(=O)O)cc3)s2)C2=N[C@@](C)(CS2)C(=O)NC(C(C)C)C(=O)N1 (some centres unmarked), the cell viability [1] is reported as “loss of cellular viability”, the cell viability [2] is reported as “loss of cellular viability” and the “solubility (solvents)” value (Solubility in solvents; FIG. 10 legend) is reported as “soluble in MeOH, CHCl3, DMSO”.

Source: US10538534B2 (Colorado State University Research Foundation, priority 2015, dated 2020)
